Test results from ChEMBL document CHEMBL6071196, “Semisynthetic Tetramate-Containing Fungal Metabolites with Activity against Trichomonas vaginalis and Mycoplasma genitalium” (ACS Med Chem Lett, 2024).
pEC50, pIC50: −log10 of the molar value. Values after ≈ are worked out from the molar mass of the structure shown. Active and inactive are the calls of the source. The rule behind the calls is not given here.

Key:
[1] = Selectivity index, ratio of IC50 for cytotoxicity against african green monkey Vero cells incubated for 48 hrs by celltiter blue assay to MIC for antibacterial activity against Mycoplasma genitalium G37C assessed as bacterial growth inhibition incubated for 7 days by phenol red reagent based microbroth dilution assay; format: toxicity, cell-based; conditions: read-out: Selectivity Index
[2] = test system: Mycoplasma genitalium; assay: Antibacterial activity against Mycoplasma genitalium G37C assessed as growth inhibition at 0.4 uM relative to control; format: functional; conditions: Mycoplasmoides genitalium
[3] = test system: Trichomonas vaginalis; assay: Anti-trichomonal activity against Trichomonas vaginalis assessed as inhibition of parasite growth incubated for 18 hrs; format: functional, organism-based
[4] = Selectivity index, ratio of IC50 for cytotoxicity against african green monkey Vero cells incubated for 48 hrs by celltiter blue assay to EC50 for anti-trichomonal activity against Trichomonas vaginalis assessed as inhibition of parasite growth incubated for 18 hrs; format: toxicity, cell-based; conditions: read-out: Ratio IC50/EC50
[5] = test system: Mycoplasma genitalium; assay: Antibacterial activity against Mycoplasma genitalium G37C assessed as growth inhibition at 0.6 uM measured after 1 month relative to control; format: functional, organism-based; conditions: Mycoplasmoides genitalium, time 1.0 months
[6] = test system: Mycoplasma genitalium; assay: Antibacterial activity against Mycoplasma genitalium G37C assessed as bacterial growth inhibition incubated for 7 days by phenol red reagent based microbroth dilution assay; format: functional; conditions: Mycoplasmoides genitalium, 168 h, time 7 day
[7] = test system: Mycoplasma genitalium; assay: Antibacterial activity against Mycoplasma genitalium G37C assessed as growth inhibition at 2 uM relative to control; format: functional; conditions: Mycoplasmoides genitalium
[8] = test system: Mycoplasma genitalium; assay: Antibacterial activity against Mycoplasma genitalium G37C assessed as growth inhibition at 3 uM measured after 1 month relative to control; format: functional, organism-based; conditions: Mycoplasmoides genitalium, time 1.0 months
[9] = test system: Mycoplasma genitalium; assay: Antibacterial activity against Mycoplasma genitalium G37C assessed as bacterial growth inhibition incubated for 30 mins by qPCR analysis; format: functional, organism-based; conditions: Mycoplasmoides genitalium, 0.5 h
[10] = test system: Mycoplasma genitalium; assay: Antibacterial activity against Mycoplasma genitalium Sea-2 assessed as bacterial growth inhibition incubated for 30 mins by qPCR analysis; format: functional, organism-based; conditions: Mycoplasmoides genitalium, Sea-2, 0.5 h
[11] = test system: Mycoplasma genitalium; assay: Antibacterial activity against Mycoplasma genitalium Sea-1 assessed as bacterial growth inhibition incubated for 30 mins by qPCR analysis; format: functional, organism-based; conditions: Mycoplasmoides genitalium, Sea-1, 0.5 h
[12] = Selectivity index, ratio of IC50 for cytotoxicity against african green monkey Vero cells incubated for 48 hrs by celltiter blue assay to IC50 for antibacterial activity against Mycoplasma genitalium G37C assessed as bacterial growth inhibition incubated for 30 mins by qPCR analysis; format: toxicity, cell-based; conditions: read-out: Ratio IC50
[13] = Selectivity index, ratio of IC50 for cytotoxicity against african green monkey Vero cells incubated for 48 hrs by celltiter blue assay to IC50 for antibacterial activity against Mycoplasma genitalium Sea-2 assessed as bacterial growth inhibition incubated for 30 mins by qPCR analysis; format: toxicity, cell-based; conditions: read-out: Ratio IC50
[14] = Selectivity index, ratio of IC50 for cytotoxicity against african green monkey Vero cells incubated for 48 hrs by celltiter blue assay to IC50 for antibacterial activity against Mycoplasma genitalium Sea-1 assessed as bacterial growth inhibition incubated for 30 mins by qPCR analysis; format: toxicity, cell-based; conditions: read-out: Ratio IC50

SMILES | selectivity ratio at 48 h [1] | pEC50 [3] | selectivity ratio at 48 h [4] | MIC90 [6] | other results
C/C=C/C=C/[C@H]1C(C)=C[C@H]2C[C@@H](C)CC[C@@H]2[C@@]1(C)/C(O)=C1\C(=O)[C@@H](CO)N(C)C1=O | 141 | 5.74 | 32.1 | 0.4 µM (≈ 0.165 µg/mL) | inhibition at 0.4 µM [2]: 90%; inhibition [5]: inactive
CCCCC[C@H]1[C@@H](C)C[C@H]2C[C@@H](C)CC[C@@H]2[C@@]1(C)/C(O)=C1\C(=O)[C@@H](CO)N(C)C1=O | 64 | 5.68 | > 16 | 0.5 µM (≈ 0.21 µg/mL) | –
C/C=C/[C@@H]1C=C[C@@H]2C[C@H](C)CC[C@H]2[C@]1(C)/C(O)=C1\C(=O)[C@H](CO)N(C)C1=O | 46.9 | 5.52 | 4.2 | 0.3 µM (≈ 0.112 µg/mL) | –
C#CCOC[C@@H]1C(=O)/C(=C(/O)[C@@]2(C)[C@@H](/C=C/C=C/C[C@@H](C)O)C(C)=C[C@H]3C[C@@H](C)CC[C@@H]32)C(=O)N1C | 15.1 | 5.41 | 24.3 | 6.3 µM (≈ 3.12 µg/mL) | –
CC1=C[C@H]2C[C@@H](C)CC[C@@H]2[C@@](C)(/C(O)=C2\C(=O)[C@@H](CO)N(C)C2=O)[C@H]1/C=C/C=C/C[C@@H](C)O | 23.8 | 7.22 | 315 | 0.9 µM (≈ 0.412 µg/mL) | –
C/C=C/C=C/[C@H]1C(C)=C[C@H]2C[C@@H](C)CC[C@@H]2[C@@]1(C)/C(O)=C1\C(=O)[C@H](COCc2cn(CCc3ccc(O)cc3)nn2)N(C)C1=O | 29.7 | < 5.00 | – | 2.6 µM (≈ 1.6 µg/mL) | inhibition at 2 µM [7]: 90%; inhibition [8]: inactive; pIC50 [9]: 5.92; pIC50 [10]: 6.00; pIC50 [11]: 6.10; selectivity ratio at 48 h [12]: 64; selectivity ratio at 48 h [13]: 77; selectivity ratio at 48 h [14]: 96
CCCCCC1=C(C)C[C@H]2C[C@@H](C)CC[C@@H]2[C@@]1(C)/C(O)=C1\C(=O)[C@@H](CO)N(C)C1=O | 13.1 | < 5.00 | > 8 | 29.9 µM (≈ 12.5 µg/mL) | –
CCCCC[C@H]1[C@H](C)C[C@H]2C[C@@H](C)CC[C@@H]2[C@@]1(C)/C(O)=C1\C(=O)[C@@H](CO)N(C)C1=O | 51.6 | 5.57 | 72.6 | 3.8 µM (≈ 1.59 µg/mL) | –
C/C=C/C=C/[C@H]1C(C)=C[C@H]2C[C@@H](C)CC[C@@H]2[C@@]1(C)/C(O)=C1\C(=O)[C@@H](COCc2cn(Cc3ccc(C(=O)O)cc3)nn2)N(C)C1=O | 1.5 | 5.66 | 12.8 | 19.9 µM (≈ 12.5 µg/mL) | –
CCCCC[C@H]1C(C)=C[C@H]2C[C@@H](C)CC[C@@H]2[C@@]1(C)/C(O)=C1\C(=O)[C@@H](CO)N(C)C1=O | 32 | 6.15 | > 170 | 3.8 µM (≈ 1.59 µg/mL) | –
C/C=C/[C@@H]1C=C[C@@H]2C[C@H](C)CC[C@H]2[C@]1(C)/C(O)=C1/C(=O)N[C@@H](CO)C1=O | 40 | 5.60 | 35.9 | 2.2 µM (≈ 0.791 µg/mL) | –
